Tested on: normal mice
Test: Comparative adjuvant activity on total anti-polysaccharide IgG levels in normal mice (Meningococcal A polysaccharide)
Type: in vivo
Conditions: parenteral, 14 and 28 day; for Total IgG level: IgG day 42, Mean ± SE
Method: The present adjuvant and extracts were administered with Meningococcal A polysaccharide on indicated days and IgG levels were estimated on day 42 to assess adjuvant activity.

Row | SMILES | Activity (%) (percent immunomodulatory activity) (0.011 mg/kg) | Total IgG level (0.011 mg/kg) | Activity (%) (percent immunomodulatory activity) (0.0185 mg/kg) | Total IgG level (0.0185 mg/kg)
1 | CC1=C(CO)C(=O)O[C@@H]([C@@H](C)[C@H]2CC[C@H]3[C@@H]4C[C@H]5O[C@]56[C@@H](O)C=CC(=O)[C@]6(C)[C@H]4CC[C@]23C)C1 [Withaferin A] | 38.12 | 397.47 ± 93.71 |  | 
2 | CC1=C(C)C(=O)O[C@@H]([C@](C)(O)[C@H]2CC[C@H]3[C@@H]4[C@@H]5O[C@@H]5[C@@]5(O)CC=CC(=O)[C@]5(C)[C@H]4CC[C@]23C)C1 [Withanolide A] |  |  | 14.62 | 329.84 ± 86.82

Source: US8501186B2, “Adjuvant composition for vaccine” (Serum Institute of India, Ltd., priority 2009, dated 2013)
